Data published in patent US12358859B2, “Series of compounds for treatment of skin diseases and other conditions” (Unigen, Inc., priority 2018, dated 2025).
Read-outs that look alike come from different tables or passages of the source.

Key:
Type in all cases: cell-based
[1] = system: murine melanoma cells B16-F1; assay: Melanin production by murine melanoma cells B16-F1; settings: Mus musculus, B16-F1, 1 nM α-MSH, 48 hours
Procedure: Selected compounds were then tested for the ability to suppress melanin production by the murine melanoma cells B16-F1 as detailed below.
Murine melanoma cells B16-F1 were purchased from the ATCC (Cat #CRL-6323). Cell Titer96 AqueousOne Solution was purchased from Promega (Cat #G3582). 0.2 μm pore size, low protein binding filters were purchased from PALL Life Sciences. (Cat #PN4454).
Alpha-MSH was purchased from the Sigma Aldrich (Cat #M4135-1MG). All tissue culture reagents were purchased from VWR (phenol-red-free DMEM, cat #12001-630, L-glutamine, cat #12001-698) and Fisher Scientific (Trypsin-EDTA, cat #25-200-056).
The B16-F1 cells were maintained in cell growth media (DMEM/High Glucose supplemented with glutamine, 10% fetal bovine serum, 50 units/ml penicillin, and 50 units/mL of streptomycin) at 37° C. in a humidified atmosphere of 95% air and 5% CO2.
(§1) All test compounds were initially dissolved in 100% DMSO at a concentration of 400 mM. Then, 6 μL of 400 mM test compounds were added to 1.2 mL of the cell growth media giving a final concentration of 2 mM for the test compound and concentration of 0.5% for DMSO. The compounds were centrifuged for 1 h at 20,000×g. Supernatants (1 mL) were collected and filtered through sterile 0.2 μm filters. The compounds were serially diluted in two-fold increments in the sterile cell growth media supplemented with 0.5% DMSO, thus keeping the concentration of DMSO constant for all samples. These serially diluted compounds were subsequently used as two-fold concentrated stock solutions in the melanin production and cell viability assays. Equal volumes of 2× compounds were mixed with media containing 2 nM α-MSH to give a final concentration of 1 nM α-MSH, 0.5% DMSO, and 1× concentration of test compounds.
B16-F1 cells were seeded into the wells of clear-bottom 24-well plates at 50,000 cells per well, in 0.5 mL of cell growth media. On the following day, 0.5 mL of freshly prepared test compounds containing α-MSH were added to the wells. The cells were maintained at 37° C. in a humidified atmosphere of 95% air and 5% CO2 for 48 hours. At the end of the incubation period, melanin-containing conditioned media was removed from the cells and transferred to another plate. To measure melanin content the light absorbance of conditioned media was taken at 492 nm using a TECAN Genios plate reader.
(§2) More than 90% percent of the melanin produced by cultured melanoma cells is found in extra-cellular media. Therefore, at the end of the experiment melanin-containing media was collected and relative amounts of melanin were determined by absorption at 492 nm. Viability of cells was determined by a commonly used colorimetric procedure that is based on conversion of the tetrazolium compounds to colored formazan products (using Promega's CellTiter96 AqueousOne assay). Dehydrogenase enzymes in metabolically active cells accomplish this conversion, and the amount of formazan product is directly proportional to the number of living cells in culture. Mean (n=2) absorption of wells containing no cells was subtracted as blanks. The results were computed as percent of wells that contained the cells but no test compounds.

[2] = system: murine melanoma cells B16-F1; assay: Cell viability, tetrazolium reduction assay
Procedure: as §1
Viability of cells was measured using standard tetrazolium reduction assay based on redox potential of live cells. Cells were seeded in a clear-bottom 96-well plate in RPMI 1640 media with Glutamax (Fisher Scientific, cat #61870036) at a density of 5,000 cells/well. Cells were treated with test compounds dissolved in 100 μL RPMI 1640 media and incubated for 48 hours at 37° C. in a humidified atmosphere of 95% air and 5% CO2.
After incubation, 20 μL of Aqueous One Solution were added to each well and the plate was returned to the incubator for 30 minutes. Conversion of tetrazolium was monitored by measuring absorbance of cell wells at 492 nm using a TECAN Genios plate reader.
as §2

[3] = system: Propionibacterium acnes (ATCC11827); assay: P-acne MIC/MBC test; settings: Cutibacterium acnes; for MIC: ATCC11827, 24 h, lowest level that inhibits growth, turbidity, 1 day, read-out: MIC; for MBC: ATCC11827, lowest concentration required to kill the bacterium, read-out: MBC
Procedure: The anti-microbial activity of the tested compounds were evaluated using published methods (Modugno e. al. (1994) Antimicrobial agents and Chemotherapy 38: 2362-2368; […] et. al. (1973) Antimicrobial agents and Chemotherapy 3: 40-48. Propionibacterium acnes (ATCC11827) was cultured for 20 hours at 37° C. in Reinforced Clostridal medium. The test article and positive control were dissolved in 1% DMSO with an incubation volume of 1 mL. The time of assessment was 1 day. Measurement of turbidity was used as the method of quantification. The compounds were tested in duplicate at concentrations of 250 ug/mL, 125 ug/mL, 62 ug/mL, 31 ug/mL, 16 ug/mL, 8 ug/mL, 4 ug/mL, 2 ug/mL relative to positive control ampicillin at 0.1 ug/mL.

[4] = system: reconstructed skin (keratinocytes and melanocytes); assay: Reconstructed human skin model (Melanoderm); settings: for toxicity on reconstructed skin: at 0.05%
Procedure: The skin whitening effects of test compounds were studied using a reconstructed skin model, Melanoderm™ provided by MatTek Corp. (Ashland, Mass.) according to the manufacturer's specifications. Briefly, normal human epidermal keratinocytes and normal human melanocytes derived from dark skin donors were co-cultured on a surface of collagen-coated membrane to form multi-layered, highly differentiated skin tissue (MEL-300-B). The tissues were maintained in the CO2, incubator at 37° C. The apical surfaces of the reconstructed skin (9 mm in diameter) were exposed to air whereas the bottom surfaces remained in contact with 5 mL of maintenance medium, containing skin differentiating factors (EPI-100-NNM-113). Test compounds were formulated in 80% propylene glycol as follows: 10 mg of each test compound was dissolved in DMSO and diluted with 80% propylene glycol (1,2-propanediol, Sigma-Aldrich) to stock concentrations. The compounds were then sterilized by passing through 0.2 um filter and diluted in sterile water/propylene glycol to final test concentrations in 0.5% DMSO, 80% propylene glycol. In addition, the following controls were used: 80% propylene glycol with 0.5% DMSO, and 1% kojic acid in 80% propylene glycol.
‘Test compounds were applied to the apical surface of the tissues as follows: 25 μl of each test compound, 25 μl of 80% propylene glycol (vehicle control), and 25 μl of 1% kojic acid (positive control). The samples were reapplied every other day for 14 days. All the samples were tested in duplicate. At the end of the experiment microscopic images were taken.
The potential skin-whitening properties of test compounds were explored in a reconstructed skin model. The model consists of normal, human-derived epidermal keratinocytes and melanocytes, which have been co-cultured to form a multilayered, highly differentiated human epidermis. In this study the melanocytes were obtained from a highly pigmented donor.
Different concentrations of test compounds, 80% propylene glycol (the vehicle control), or 1% kojic acid (positive control) were repeatedly applied topically on the surface of the reconstructed skin for 15 days. […] Photographs of skin specimen taken after 15 days of the experiment show significant dose-dependent whitening effects on melanocytes, which appear on photographs as dark dendritic cells.

[5] = Tables 1-3, read-out: MELANIN PRODUCTION
[6] = FIGS. 2-8, read-out: IC50, inhibition in the production of melanin

| SMILES | IC50 [1, 5] | MIC [3] | CELL VIABILITY ([2]; mouse, 48 h) | MBC [3] | toxicity on reconstructed skin [4] | IC50 [1, 6] | LD50, cell viability ([2]; mouse, 48 h) | whitening effects on melanocytes ([4]; topical, photographs after 14 days) | CELL VIABILITY ([2]; 48 hours, Tables 1-3) |
| --- | --- | --- | --- | --- | --- | --- | --- | --- | --- |
| CC(C)=CCCC(C)/C=C/c1ccc2cc(O)ccc2c1 (stereo not drawn) [Compound 8, (E)-6-(3,7-Dimethylocta-1,6-dienyl) naphthalene-2-ol] | 22 µM | < 3.9 µg/mL | 68 µM | < 3.9 µg/mL | some toxicity | 22 µM | 68 µM |  |  |
| CC(C)=CCCC(C)/C=C/c1cccnc1 (stereo not drawn) [Compound 12, (E)-3-(3,7-dimethylocta-1,6-dienyl) pyridine] | 74 µM | < 3.9 µg/mL |  | < 3.9 µg/mL | some toxicity | 74 µM | 385 µM | significant whitening effects | 385 µM |
| COc1ccc(/C=C/C(C)CCC=C(C)C)cn1 (stereo not drawn) [Compound 14, (E)-5-(3,7-dimethylocta-1,6-dienyl)-2-methoxypyridine] | 147 µM |  | 369 µM |  |  |  |  |  |  |
| CC(C)=CCCC(C)C/C=C/c1cc(OCC(=O)O)cc(OCC(=O)O)c1 (stereo not drawn) [Compound 17, (E)-2,2′-(5-(4,8-dimethylnona-1,7-dienyl)-1,3-phenylene)bis(oxy)diacetic acid] | 72 µM | < 3.9 µg/mL | 127 µM | < 3.9 µg/mL |  |  |  |  |  |

The next lines start with results.

| IC50 [1, 5] | MIC [3] | SMILES | CELL VIABILITY ([2]; mouse, 48 h) | MBC [3] | toxicity on reconstructed skin [4] | IC50 [1, 6] | LD50, cell viability ([2]; mouse, 48 h) | whitening effects on melanocytes ([4]; topical, photographs after 14 days) | CELL VIABILITY ([2]; 48 hours, Tables 1-3) |
| --- | --- | --- | --- | --- | --- | --- | --- | --- | --- |
| 82 µM |  | CC(C)=CCCC(C)=Cc1cccc(O)c1 (mixture of isomers) [Compound 2, (E/Z)-3-(2,6-dimethylhepta-1,5-dienyl)phenol] | 66 µM |  |  |  |  |  |  |
| 164 µM | < 3.9 µg/mL | CC(C)=CCC/C(C)=C/c1ccc(O)cc1O [Compound 3, (E/Z)-4-(2,6-dimethylhepta-1,5-dienyl)benzene-1,3-diol] | 172 µM | < 3.9 µg/mL |  |  |  |  |  |
| 149 µM |  | CC(C)=CCCC(C)/C=C/c1ccccn1 (stereo not drawn) [Compound 13, (E)-2-(3,7-dimethylocta-1,6-dienyl) pyridine] | 650 µM |  |  |  |  |  |  |
| 164 µM | < 3.9 µg/mL | CC(C)=CCCC(C)C/C=C/c1cc(O)cc(O)c1 (stereo not drawn) [Compound 16, (E)-5-(4,8-dimethylnona-1,7-dienyl) benzene-1,3-diol] | 172 µM | < 3.9 µg/mL |  |  |  |  |  |
